# Measurements from patent publication US20030186345A1, “Macromolecular enzyme substrates” (priority 2003, published 2003).
# *1 amine or outer side, *2 acyl side, *3 side chain or, on linkers, in order; H or OH if unused. Where a SMILES comes first, the peptide text is derived from it. [ ]: non-standard residue; d: D form. The star is where a group is joined. pNA = O=[N+]([O-])c1ccc(N*)cc1; Suc = O=C(CCC(=O)[*:2])[*:1]
# Assays:
# thrombin [1] = biological target: T1, thrombin (Homo sapiens, UniProt P00734); assay: Cleavage of pNA substrates by thrombin, kinetic parameters; format: biochemical; parameters: Human thrombin, bovine chymotrypsin; purchased Sigma Chemical Co. (St. Louis, Mo.); settings: 37° C.; means of triplicates
# Experimental: Measurements of protease activity at 25° C. or 37° C. were performed and analyzed as previously described (Hortin and Trimpe, J. Biol. Chem. 266:6866-6871, 1991) with a Cobas FARA analyzer (Roche Diagnostic Systems, Somerville, N.J.). […] Kinetic parameters were calculated from initial rates of reactions using Lineweaver-Burke plots. […] These reactions were performed in 100 mM tris(hydroxymethyl)-aminomethane pH 7.8 with 10 mm CaCl2. Substrate concentration were determined by absorbance at 342 nm, using an extinction coefficient of 8,260 mol^−1 and several concentrations were confirmed by absorbance measures at 405 or 410 nm after substrate hydrolysis, with extinction coefficient of 9,900 or 8,600 mol^−1, respectively, for the p-nitroaniline product (Lottenberg and Jackson, Biochim. Biophys. Acta 742:558-564, 1983). Molar concentration of chymotrypsin was determined by active site titration with p-nitrophenyl guanidinobenzoate and thrombin concentrations by titration with highly purified hirudin.
# trypsin = biological target: T2, trypsin (Bos taurus, UniProt P00760); assay: Inhibition of substrate cleavage by α2-macroglobulin, trypsin; format: biochemical, bovine; settings: excess inhibitor
# T2 construct: purchased Worthington Biochemicals Co. (trypsin); Calbiochem (α2-macroglobulin)
# T2 sequence (P00760 24-246): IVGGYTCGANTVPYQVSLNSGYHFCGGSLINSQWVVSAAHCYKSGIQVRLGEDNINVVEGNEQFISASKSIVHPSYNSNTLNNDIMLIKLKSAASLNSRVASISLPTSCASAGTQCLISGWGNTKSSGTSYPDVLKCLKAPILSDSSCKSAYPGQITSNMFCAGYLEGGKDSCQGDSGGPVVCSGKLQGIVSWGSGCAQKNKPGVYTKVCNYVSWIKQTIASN
# Experimental: (§2) Measurements of protease activity at 25° C. or 37° C. were performed and analyzed as previously described (Hortin and Trimpe, J. Biol. Chem. 266:6866-6871, 1991) with a Cobas FARA analyzer (Roche Diagnostic Systems, Somerville, N.J.). […] Kinetic parameters were calculated from initial rates of reactions using Lineweaver-Burke plots. […] These reactions were performed in 100 mM tris(hydroxymethyl)-aminomethane pH 7.8 with 10 mm CaCl2. Substrate concentration were determined by absorbance at 342 nm, using an extinction coefficient of 8,260 mol^−1 and several concentrations were confirmed by absorbance measures at 405 or 410 nm after substrate hydrolysis, with extinction coefficient of 9,900 or 8,600 mol^−1, respectively, for the p-nitroaniline product (Lottenberg and Jackson, Biochim. Biophys. Acta 742:558-564, 1983). […] Trypsin concentration was estimated based on weight, assuming 100% activity. For studies of trypsin and thrombin, α2-macro-globulin was pretreated with a 200-fold molar excess of p-amidinophenylmethyl-sulfonylfluoride in order to inactivate any protease trapped within the inhibitor and left at 4° C. for 72 hours before use to allow complete decay of the sulfonylfluoride.
# thrombin [2] = biological target: T1, thrombin; assay: Inhibition of substrate cleavage by α2-macroglobulin, thrombin; format: biochemical; parameters: Human thrombin, bovine chymotrypsin; purchased Sigma Chemical Co. (thrombin); Calbiochem (α2-macroglobulin); settings: excess inhibitor
# Experimental: as §2
# pancreatic amylase [3] = biological target: T3, pancreatic amylase (Homo sapiens, UniProt P04746); assay: Amylase assay, Km determination, pancreatic amylase; format: biochemical; settings: 37° C.; HEPES buffer pH 7.15
# T3 construct: purchased Scripps Laboratories (San Diego, Calif.)
# T3 sequence (P04746 16-511): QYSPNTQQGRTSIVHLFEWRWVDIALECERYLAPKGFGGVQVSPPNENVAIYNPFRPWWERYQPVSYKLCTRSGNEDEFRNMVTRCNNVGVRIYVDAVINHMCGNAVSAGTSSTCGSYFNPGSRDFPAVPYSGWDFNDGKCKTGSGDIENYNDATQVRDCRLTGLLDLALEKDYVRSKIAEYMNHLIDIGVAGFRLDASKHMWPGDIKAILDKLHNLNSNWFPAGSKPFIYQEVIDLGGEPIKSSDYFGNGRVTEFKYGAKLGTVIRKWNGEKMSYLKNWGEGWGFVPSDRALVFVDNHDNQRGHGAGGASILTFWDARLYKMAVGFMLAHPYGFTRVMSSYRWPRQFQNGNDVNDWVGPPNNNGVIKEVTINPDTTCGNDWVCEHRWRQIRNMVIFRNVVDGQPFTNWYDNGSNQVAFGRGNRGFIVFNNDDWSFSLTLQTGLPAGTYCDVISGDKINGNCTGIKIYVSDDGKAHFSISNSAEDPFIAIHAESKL
# Experimental: Amylase assays using oligosaccharide substrates were automated using a Cobas Fara analyzer (Roche, Basel, Switzerland). Unless indicated, assay temperature was 37° C., and absorbance changes were measured at 405 nm every minute over a 20 minute period. […] Amylases were diluted into assay buffer containing 1 mg/mL rabbit albumin. Final reaction volumes were 200 μL and consisted of 3 solutions, R1, R2, and R3. […] Depending upon the assay, R2 and R3 contained either amylase or substrate. R1 and R2 solutions were mixed for 10 seconds prior to the addition of R3. For immunoinhibition studies, antibodies were preincubated with amylase (R2) for 30 minutes at room temperature prior to the addition of substrate (R3). Unless indicated, final concentrations of MABs were 10 mg/L. Reaction blanks were determined by measuring the absorbance of substrate or enzyme alone at 405 nm. When EtG7pNP or mPEG-EtG7pNP were used as substrates, α-glucosidase was included in the blank measurement. Differences between the test samples and reagent blanks were determined. Activity of stock solutions of amylase was based on activity measured with a Hitachi 917 analyzer using a Roche kit (Cat. No 1876473) (Indianapolis, Ind.) which uses EtG7pNP as the substrate. For Km determinations, 4 or 5 different substrate concentrations (0.05 mmol/L to 6 mmol/L) with salivary (4-20 U/L) or pancreatic (4-40 U/L) amylase were used.
# salivary amylase [4] = biological target: T4, salivary amylase (Homo sapiens, UniProt P0DUB6); assay: Immunoinhibition by MABs, salivary amylase, oligosaccharide substrates; format: biochemical; settings: salivary isoenzyme, 20 U/I (G5, G7 substrates) or 600 U/I (G3 substrates), 100% = no MAB
# T4 construct: purchased Sigma (St. Louis, Mo.)
# T4 sequence (P0DUB6 16-511): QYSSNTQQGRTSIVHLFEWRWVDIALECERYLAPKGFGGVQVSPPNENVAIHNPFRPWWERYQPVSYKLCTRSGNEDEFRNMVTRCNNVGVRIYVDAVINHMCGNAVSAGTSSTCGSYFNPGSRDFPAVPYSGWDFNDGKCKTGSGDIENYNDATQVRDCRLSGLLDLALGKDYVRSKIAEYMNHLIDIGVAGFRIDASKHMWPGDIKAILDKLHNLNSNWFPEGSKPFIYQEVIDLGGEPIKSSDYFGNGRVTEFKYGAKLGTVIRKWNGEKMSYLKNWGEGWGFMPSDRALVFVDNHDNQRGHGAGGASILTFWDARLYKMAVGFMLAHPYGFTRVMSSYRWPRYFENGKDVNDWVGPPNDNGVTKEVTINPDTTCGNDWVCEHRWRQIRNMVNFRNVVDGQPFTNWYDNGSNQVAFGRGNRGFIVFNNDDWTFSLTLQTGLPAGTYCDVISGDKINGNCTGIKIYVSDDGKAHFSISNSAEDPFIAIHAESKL
# Experimental: (§1) Amylase assays using oligosaccharide substrates were automated using a Cobas Fara analyzer (Roche, Basel, Switzerland). Unless indicated, assay temperature was 37° C., and absorbance changes were measured at 405 nm every minute over a 20 minute period. Assay buffer was either 52.5 mmol/L 4-(2-hydroxyethyl)-1-piperazine-ethanesulfonic acid (HEPES) buffer, pH 7.15, 87 mmol/L sodium chloride, 12.6 mmol/L magnesium chloride, 0.075 mmol/L calcium chloride (HEPES buffer) or 50 mmol/L MES, pH 6.0, 350 mmol/L sodium chloride, 6 mmol/L calcium acetate, 900 mmol/L KSCN (MES buffer). Amylases were diluted into assay buffer containing 1 mg/mL rabbit albumin. Final reaction volumes were 200 μL and consisted of 3 solutions, R1, R2, and R3. […] Depending upon the assay, R2 and R3 contained either amylase or substrate. R1 and R2 solutions were mixed for 10 seconds prior to the addition of R3. For immunoinhibition studies, antibodies were preincubated with amylase (R2) for 30 minutes at room temperature prior to the addition of substrate (R3). Unless indicated, final concentrations of MABs were 10 mg/L. Reaction blanks were determined by measuring the absorbance of substrate or enzyme alone at 405 nm. When EtG7pNP or mPEG-EtG7pNP were used as substrates, α-glucosidase was included in the blank measurement. Differences between the test samples and reagent blanks were determined. Activity of stock solutions of amylase was based on activity measured with a Hitachi 917 analyzer using a Roche kit (Cat. No 1876473) (Indianapolis, Ind.) which uses EtG7pNP as the substrate. For Km determinations, 4 or 5 different substrate concentrations (0.05 mmol/L to 6 mmol/L) with salivary (4-20 U/L) or pancreatic (4-40 U/L) amylase were used.
# When both MABs were used, MAB 88E8 concentrations were varied in the presence of 10 mg/L MAB 66C7. At an antibody concentration of 10 mg/L, MAB 88E8 inhibits 98% of salivary amylase activity in HEPES buffer and 34% of salivary amylase activity in MES buffer. MAB 66C7 increases salivary amylase activity in HEPES buffer and has no effect on salivary amylase activity in MES buffer. Using a mixture of MABs 88E8 and 66C7 at concentrations of […], >99% of salivary amylase activity is inhibited in HEPES buffer and 73% of salivary amylase activity is inhibited in MES buffer. When the pH of the MES buffer was increased from 6.0 to 6.5 and the concentration of KSCN was decreased from 900 mmol/L to 300 mmol/L, >97% of salivary amylase activity was inhibited by MAB 88E8.
# pancreatic amylase [5] = biological target: T3, pancreatic amylase; assay: Immunoinhibition by MABs, pancreatic amylase, oligosaccharide substrates; format: biochemical; settings: pancreatic isoenzyme, 40 U/I (G5, G7 substrates) or 400 U/I (G3 substrates), 100% = no MAB
# Experimental: as §1
# salivary amylase [6] = biological target: T4, salivary amylase; assay: Amylase assay, Km determination, salivary amylase; format: biochemical; settings: 37° C.; HEPES buffer pH 7.15
# Experimental: as §1
# chymotrypsin = chymotrypsin (Bos taurus, UniProt P00766); assay: Inhibition of substrate cleavage by α2-macroglobulin, chymotrypsin
# Experimental: Measurements of protease activity at 25° C. or 37° C. were performed and analyzed as previously described (Hortin and Trimpe, J. Biol. Chem. 266:6866-6871, 1991) with a Cobas FARA analyzer (Roche Diagnostic Systems, Somerville, N.J.). […] Kinetic parameters were calculated from initial rates of reactions using Lineweaver-Burke plots. […] These reactions were performed in 100 mM tris(hydroxymethyl)-aminomethane pH 7.8 with 10 mm CaCl2. Substrate concentration were determined by absorbance at 342 nm, using an extinction coefficient of 8,260 mol^−1 and several concentrations were confirmed by absorbance measures at 405 or 410 nm after substrate hydrolysis, with extinction coefficient of 9,900 or 8,600 mol^−1, respectively, for the p-nitroaniline product (Lottenberg and Jackson, Biochim. Biophys. Acta 742:558-564, 1983). Molar concentration of chymotrypsin was determined by active site titration with p-nitrophenyl guanidinobenzoate and thrombin concentrations by titration with highly purified hirudin. Trypsin concentration was estimated based on weight, assuming 100% activity. For studies of trypsin and thrombin, α2-macro-globulin was pretreated with a 200-fold molar excess of p-amidinophenylmethyl-sulfonylfluoride in order to inactivate any protease trapped within the inhibitor and left at 4° C. for 72 hours before use to allow complete decay of the sulfonylfluoride.
# [7] = tested on: C[C@H](NC(=O)CCC(=O)O)C(=O)N[C@@H](C)C(=O)N1CCC[C@H]1C(=O)N[C@@H](Cc1ccccc1)C(=O)Nc1ccc([N+](=O)[O-])cc1; assay: purified protein, by the assay type; settings: other: 37° C., means of triplicates, pH 7.8
# 20S proteasomes = biological target: T5, 20S proteasomes (Methanosarcina thermophila, UniProt Q9P992); assay: Substrate cleavage by 20S proteasomes; format: biochemical
# T5 construct: purchased Calbiochem (La Jolla, Calif.); host or cells: Escherichia coli
# T5 sequence (Q9P992 10-210): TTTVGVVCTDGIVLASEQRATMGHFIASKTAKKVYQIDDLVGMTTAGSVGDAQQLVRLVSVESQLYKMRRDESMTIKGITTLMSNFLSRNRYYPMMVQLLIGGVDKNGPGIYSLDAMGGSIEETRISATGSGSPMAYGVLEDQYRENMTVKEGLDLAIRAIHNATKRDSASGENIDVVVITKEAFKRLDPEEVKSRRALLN
# T5 sequence (Q59565 1-247 partner): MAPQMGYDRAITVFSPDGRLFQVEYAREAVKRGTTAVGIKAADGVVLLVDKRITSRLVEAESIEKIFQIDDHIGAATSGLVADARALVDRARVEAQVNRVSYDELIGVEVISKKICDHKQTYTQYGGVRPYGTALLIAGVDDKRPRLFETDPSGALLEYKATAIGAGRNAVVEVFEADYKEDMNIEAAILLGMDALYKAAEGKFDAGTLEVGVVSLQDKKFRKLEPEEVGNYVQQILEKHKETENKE
# Experimental: Enzyme assays. Assays of proteasome activity were performed at 37° C. unless otherwise indicated. […] Reactions were in a buffer consisting of 100 mM Tris(hydroxymethyl)aminomethane, pH 7.2 with 1 mM dithiothreitol.
compound,measurement,setting,value
CC[C@@H](C)[C@@H](N)C(=O)N1CCC[C@H]1C(=O)N[C@@H](CCCNC(=N)N)C(=O)Nc1ccc([N+](=O)[O-])cc1 [D-Ile-Pro-Arg-pNA] (H-[dI]-Pro-Arg-pNA),Km,thrombin [1],12 µM
same,kcat,thrombin [1],105 S^−1
same,Inhibition of trypsin activity by excess α2-macroglobulin,trypsin,40-50%
N=C(N)NCCC[C@H](NC(=O)[C@@H]1CCCCN1C(=O)[C@H](N)Cc1ccccc1)C(=O)Nc1ccc([N+](=O)[O-])cc1 [D-Phe-Pip-Arg-pNA],Inhibition of thrombin activity by excess α2-macroglobulin,thrombin [2],40-50%
same,Km,thrombin [1],6.1 µM
same,kcat,thrombin [1],65 S^−1
"O=[N+]([O-])c1ccc(OC2OC(CO)C(OC3OC(CO)C(OC4OC(CO)C(OC5OC(CO)C(OC6OC(CO)C(O)C(O)C6O)C(O)C5O)C(O)C4O)C(O)C3O)C(O)C2O)cc1 [Substrate G5pNP, p-nitrophenyl-α-D-maltopentaoside]",Km,pancreatic amylase [3],280 µM
same,% activity with MAB 88E8 + 66C7,salivary amylase [4],2%
same,% activity with MAB 66C7,salivary amylase [4]; MAB 10 mg/L,105%
same,% activity with MAB 88E8,salivary amylase [4]; MAB 10 mg/L,6%
same,% activity with MAB 88E8 + 66C7,pancreatic amylase [5],95%
same,% activity with MAB 66C7,pancreatic amylase [5]; MAB 10 mg/L,103%
same,% activity with MAB 88E8,pancreatic amylase [5]; MAB 10 mg/L,101%
same,Km,salivary amylase [6],400 µM
"C[C@H](NC(=O)CCC(=O)O)C(=O)N[C@@H](C)C(=O)N1CCC[C@H]1C(=O)N[C@@H](Cc1ccccc1)C(=O)Nc1ccc([N+](=O)[O-])cc1 [Suc-Ala-Ala-Pro-Phe-pNA, succinyl-Ala-Ala-Pro-Phe-pNA] (Suc-AAPF-pNA)",Maximal inhibition of chymotrypsin activity by excess α2-macroglobulin,chymotrypsin; increasing α2-macroglobulin added to a fixed amount of chymotrypsin,about 60%
bovine chymotrypsin (Bos taurus),Km,[7],40 µM
same,kcat,[7],120 s⁻¹
same,kcat/Km,[7],3e+06 M⁻¹ s⁻¹
succinyl-Ala-Ala-Phe-p-nitroanilide [Suc-Ala-Ala-Phe-pNA],Rate of substrate cleavage by 20s proteasomes,"20S proteasomes; each substrate at 1 mM, 37° C., mean ± SD",0.0061 ± 0.0001 ΔA405/10 min
same,Rate of cleavage greater than Ala-Ala-Phe-pNA,"20S proteasomes; substrate 0.5-3 mM, 30-50° C.",50-100%
same,Rate Plus α2-M,"chymotrypsin; chymotrypsin 2.5 μg/ml, 0.5 mM substrate, after incubation with excess α2-macroglobulin (250 μ/ml), means ± SD",12.3 ± 0.1 µmol/L/min
same,Rate Minus α2-M,"chymotrypsin; chymotrypsin 2.5 μg/ml, 0.5 mM substrate, before incubation with α2-macroglobulin, means ± SD",21.7 ± 0.2 µmol/L/min
same,Inhibition of substrate cleavage by α2-macroglobulin,"chymotrypsin; chymotrypsin 2.5 μg/ml, 0.5 mM substrate, excess α2-macroglobulin",43%
